Laboratory results: patent US8895695B2, “Template-fixed beta-hairpin peptidomimetics with CXCR4 antagonizing activity” (priority 2003, dated 2014)
Like-named read-outs stand apart in the source and are kept apart here. Numbered stars: 1 amine (or outer) side, 2 acyl side, 3 side chain; on linkers, the order of the positions; unused ones are H or OH. Bridge positions count the residues as written; N and C are the ends. Square brackets hold non-standard residues; d marks the D form. Peptide text beside a SMILES is read from it. X3 = COCCOCCOCC(=O)N[C@H]1C[C@@H](C(=O)[*:2])N([*:1])C1; 2Nal = N[C@@H](Cc1ccc2ccccc2c1)C(=O)O; 4Pal = N[C@@H](Cc1ccncc1)C(=O)O; Cit = NC(=O)NCCC[C@H](N)C(=O)O; Orn = NCCC[C@H](N)C(=O)O; Dab = NCC[C@H](N)C(=O)O

Columns and labels:
[1] = system: human red blood cells (hRBC); experiment: Hemolysis; format: cell-based
Outline: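 Percent lysis taken as OD540 of peptide-treated sample over OD540 of the water/0.1% Triton X-100 full-lysis control, with PBS giving 0%. Peptides at 100 μM exposed to PBS-washed human RBCs (20% v/v) for 1 hour at 37° C. before centrifugation and 20-fold dilution of supernatant.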

in vitro = settings: human
CXCR4 = CXCR4 (Homo sapiens, UniProt P61073); experiment: Ca2+-assay method 2 (Flexstation, SDF-1 induced calcium mobilization); format: cell-based; design: expressed in transfected cells; host or cells: mouse pre-B cell line 300-19; settings: method 2 (Ex. 54-160), mouse pre-B cell line 300-19 with human CXCR4, 10 nM SDF-1
Sequence of CXCR4 (P61073 whole entry): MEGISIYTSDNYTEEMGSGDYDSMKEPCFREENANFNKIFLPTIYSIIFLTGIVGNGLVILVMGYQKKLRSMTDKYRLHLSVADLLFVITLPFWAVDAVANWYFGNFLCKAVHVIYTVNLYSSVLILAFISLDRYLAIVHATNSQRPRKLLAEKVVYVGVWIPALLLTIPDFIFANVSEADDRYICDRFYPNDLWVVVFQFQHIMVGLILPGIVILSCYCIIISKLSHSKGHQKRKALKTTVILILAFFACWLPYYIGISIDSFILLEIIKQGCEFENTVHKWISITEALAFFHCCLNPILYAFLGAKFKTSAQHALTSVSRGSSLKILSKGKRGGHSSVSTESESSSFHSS

[2] = read-out: IC50 (nM) Ca^2+ assay
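Wherever GI50 is given: MTT reduction read as absorbance at 595 nm, blank-corrected and expressed as percent growth relative to the time-zero cell reading, triplicate wells per concentration.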

| Structure (SMILES) | Hemolysis at 100 μM [1] [%] | GI50 at 48 h (in vitro) [µM] | IC50 (CXCR4; [2]) [nM] | Hemolysis at 100 μM ([1]; percent hemolysis, 100 μM peptide, 20% v/v hRBC, 1 hour at 37° C.) [%] | IC50 (CXCR4; IC50 (nM) Ca^2+ assay) [nM] |
| --- | --- | --- | --- | --- | --- |
| N=C(N)NCCC[C@@H]1NC(=O)[C@@H]2CSSC[C@H](NC(=O)[C@H](Cc3c[nH]c4ccccc34)NC(=O)[C@H](CCCNC(=N)N)NC(=O)[C@H](CCCNC(=N)N)NC(=O)[C@H]3CCCN3C(=O)CNC1=O)C(=O)N[C@@H](Cc1ccc(O)cc1)C(=O)N[C@@H](CCCNC(N)=O)C(=O)N[C@@H](CCCCN)C(=O)N1CCC[C@@H]1C(=O)N1CCC[C@H]1C(=O)N[C@@H](Cc1ccc(O)cc1)C(=O)N[C@@H](CCCCN)C(=O)N[C@@H](CCCNC(N)=O)C(=O)N2 [Ex. 106] (cyclo(YK[Cit]CRG[dP]RRWCY[Cit]K[dP]P); disulfide 4-11) | 0 | 83 | 3.1 |  |  |
| N=C(N)NCCC[C@@H]1NC(=O)[C@@H]2CSSC[C@H](NC(=O)[C@H](Cc3c[nH]c4ccccc34)NC(=O)[C@H](CCCNC(=N)N)NC(=O)[C@H](CCCNC(=N)N)NC(=O)[C@H]3CCCN3C(=O)CNC1=O)C(=O)N[C@@H](Cc1ccc(O)cc1)C(=O)N[C@@H](CCCNC(N)=O)C(=O)N[C@@H](CCCCN)C(=O)N1CCC[C@@H]1C(=O)N1CCC[C@H]1C(=O)N[C@@H](Cc1ccccc1)C(=O)N[C@@H](CCCNC(=N)N)C(=O)N[C@@H](CCCNC(N)=O)C(=O)N2 [Ex. 107] (cyclo(FR[Cit]CRG[dP]RRWCY[Cit]K[dP]P); disulfide 4-11) | 0.4 | 50 | 3.8 |  |  |
| N=C(N)NCCC[C@@H]1NC(=O)[C@@H]2CSSC[C@H](NC(=O)[C@H](Cc3c[nH]c4ccccc34)NC(=O)[C@H](CCCNC(=N)N)NC(=O)[C@H](CCCNC(=N)N)NC(=O)[C@H]3CCCN3C(=O)CNC1=O)C(=O)N[C@@H](Cc1ccc(O)cc1)C(=O)N[C@@H](CCC(N)=O)C(=O)N[C@@H](CCCCN)C(=O)N1CCC[C@@H]1C(=O)N1CCC[C@H]1C(=O)N[C@@H](Cc1ccc(O)cc1)C(=O)N[C@@H](CCCNC(=N)N)C(=O)N[C@@H](CCCNC(N)=O)C(=O)N2 [Ex. 108] (cyclo(YR[Cit]CRG[dP]RRWCYQK[dP]P); disulfide 4-11) | 0 | 70 | 4.6 |  |  |
| N=C(N)NCCC[C@@H]1NC(=O)[C@@H]2CSSC[C@H](NC(=O)[C@H](Cc3c[nH]c4ccccc34)NC(=O)[C@H](CCCNC(=N)N)NC(=O)[C@H](CCN)NC(=O)[C@H]3CCCN3C(=O)CNC1=O)C(=O)N[C@@H](Cc1ccc(O)cc1)C(=O)N[C@@H](CCC(N)=O)C(=O)N[C@@H](CCCCN)C(=O)N1CCC[C@@H]1C(=O)N1CCC[C@H]1C(=O)N[C@@H](Cc1ccc(O)cc1)C(=O)N[C@@H](CCCNC(=N)N)C(=O)N[C@@H](CCCNC(N)=O)C(=O)N2 [Ex. 109] (cyclo(YR[Cit]CRG[dP][Dab]RWCYQK[dP]P); disulfide 4-11) | 0 | 65 | 3 |  |  |
| N=C(N)NCCC[C@@H]1NC(=O)[C@@H]2CSSC[C@H](NC(=O)[C@H](Cc3ccc(O)cc3)NC(=O)[C@H](CCCNC(=N)N)NC(=O)[C@H](CCCNC(=N)N)NC(=O)[C@H]3CCCN3C(=O)CNC1=O)C(=O)N[C@@H](Cc1ccc(O)cc1)C(=O)N[C@@H](CCCNC(N)=O)C(=O)N[C@@H](CCCCN)C(=O)N1CCC[C@@H]1C(=O)N1CCC[C@H]1C(=O)N[C@@H](Cc1ccc(O)cc1)C(=O)N[C@@H](CCCNC(=N)N)C(=O)N[C@@H](CCCNC(N)=O)C(=O)N2 [Ex. 112] (cyclo(YR[Cit]CRG[dP]RRYCY[Cit]K[dP]P); disulfide 4-11) | 0 | 76 | 7.8 |  |  |
| N=C(N)NCCC[C@@H]1NC(=O)[C@@H]2CSSC[C@H](NC(=O)[C@H](Cc3ccc(O)cc3)NC(=O)[C@H](CCCNC(=N)N)NC(=O)[C@H](CCCNC(=N)N)NC(=O)[C@H]3CCCN3C(=O)CNC1=O)C(=O)N[C@@H](CCCNC(N)=O)C(=O)N[C@@H](Cc1ccc(O)cc1)C(=O)N[C@@H](CCCCN)C(=O)N1CCC[C@@H]1C(=O)N1CCC[C@H]1C(=O)N[C@@H](Cc1ccc(O)cc1)C(=O)N[C@@H](CCCNC(=N)N)C(=O)N[C@@H](CCCNC(N)=O)C(=O)N2 [Ex. 113] (cyclo(YR[Cit]CRG[dP]RRYC[Cit]YK[dP]P); disulfide 4-11) | 0 | 45 | 0.62 |  |  |
| N=C(N)NCCC[C@@H]1NC(=O)CNC(=O)[C@@H]2CCCN2C(=O)[C@H]2CCCN2C(=O)[C@H](CCCCN)NC(=O)[C@H](CCCNC(N)=O)NC(=O)[C@H](Cc2ccc(O)cc2)NC(=O)[C@@H]2CSSC[C@H](NC(=O)[C@H](CCCNC(N)=O)NC1=O)C(=O)N[C@@H](CCCNC(=N)N)C(=O)NCC(=O)N1CCC[C@@H]1C(=O)N[C@@H](CCCNC(=N)N)C(=O)N[C@@H](CCCNC(=N)N)C(=O)N[C@@H](Cc1ccc3ccccc3c1)C(=O)N2 [Ex. 114] (cyclo(GR[Cit]CRG[dP]RR[2Nal]CY[Cit]K[dP]P); disulfide 4-11) | 0 | 67 | 1.3 |  |  |
| COCCOCCOCC(=O)N[C@H]1C[C@H]2C(=O)N[C@@H](Cc3ccc(O)cc3)C(=O)N[C@@H](CCCNC(=N)N)C(=O)N[C@@H](CCCNC(N)=O)C(=O)N[C@H]3CSSC[C@H](NC(=O)[C@H](Cc4c[nH]c5ccccc45)NC(=O)[C@H](CCCNC(=N)N)NC(=O)[C@H](CCCNC(=N)N)NC(=O)[C@H]4CCCN4C(=O)CNC(=O)[C@H](CCCNC(=N)N)NC3=O)C(=O)N[C@@H](Cc3ccc(O)cc3)C(=O)N[C@@H](CCCNC(N)=O)C(=O)N[C@@H](CCCCN)C(=O)N3CCC[C@@H]3C(=O)N2C1 [Ex. 116] (cyclo(YR[Cit]CRG[dP]RRWCY[Cit]K[dP][X3]); disulfide 4-11) |  | 20 |  | 0 | 14.5 |
| N=C(N)NCCC[C@@H]1NC(=O)[C@@H]2CSSC[C@H](NC(=O)[C@H](Cc3c[nH]c4ccccc34)NC(=O)[C@H](CCCN)NC(=O)[C@H](CCCNC(=N)N)NC(=O)[C@H]3CCCN3C(=O)CNC1=O)C(=O)N[C@@H](Cc1ccc(O)cc1)C(=O)N[C@@H](CCCNC(N)=O)C(=O)N[C@@H](CCCCN)C(=O)N1CCC[C@@H]1C(=O)N1CCC[C@H]1C(=O)N[C@@H](Cc1ccc(O)cc1)C(=O)N[C@@H](CCCNC(=N)N)C(=O)N[C@@H](CCCNC(N)=O)C(=O)N2 [Ex. 117] (cyclo(YR[Cit]CRG[dP]R[Orn]WCY[Cit]K[dP]P); disulfide 4-11) | 0 | 44 | 3.4 |  |  |
| C[C@@H](O)[C@@H]1NC(=O)[C@H](CCCNC(=N)N)NC(=O)[C@H](Cc2ccc(O)cc2)NC(=O)[C@@H]2CCCN2C(=O)[C@H]2CCCN2C(=O)[C@H](CCCCN)NC(=O)[C@H](CCC(N)=O)NC(=O)[C@H](Cc2ccc(O)cc2)NC(=O)[C@@H]2CSSC[C@H](NC1=O)C(=O)N[C@@H](CCCNC(=N)N)C(=O)NCC(=O)N1CCC[C@@H]1C(=O)N[C@@H](Cc1ccncc1)C(=O)N[C@@H](CCCNC(=N)N)C(=O)N[C@@H](Cc1c[nH]c3ccccc13)C(=O)N2 [Ex. 118] (cyclo(YRTCRG[dP][4Pal]RWCYQK[dP]P); disulfide 4-11) | 0 | 52 | 7.6 |  |  |
| C[C@@H](O)[C@@H]1NC(=O)[C@H](Cc2ccncc2)NC(=O)[C@H](Cc2ccc(O)cc2)NC(=O)[C@@H]2CCCN2C(=O)[C@H]2CCCN2C(=O)[C@H](CCCCN)NC(=O)[C@H](CCC(N)=O)NC(=O)[C@H](Cc2ccc(O)cc2)NC(=O)[C@@H]2CSSC[C@H](NC1=O)C(=O)N[C@@H](CCCNC(=N)N)C(=O)NCC(=O)N1CCC[C@@H]1C(=O)N[C@@H](CCCNC(=N)N)C(=O)N[C@@H](CCCNC(=N)N)C(=O)N[C@@H](Cc1c[nH]c3ccccc13)C(=O)N2 [Ex. 119] (cyclo(Y[4Pal]TCRG[dP]RRWCYQK[dP]P); disulfide 4-11) | 0 | 63 | 9.4 |  |  |
